From the NIST ThermoML archive (doi:10.1021/je0499317)

Test: excess molar enthalpy (molar enthalpy of mixing); xn = mol fraction of the nth substance listed
Settings: 298.15 K, 101.33 kPa, Liquid

CCCCCCC#N [heptanenitrile] + C[S+](C)[O-]
Settings	excess molar enthalpy [kJ/mol]
x2 = 0.02225	0.0655
x2 = 0.07063	0.21
x2 = 0.08316	0.247
x2 = 0.119	0.341
x2 = 0.1747	0.484
x2 = 0.1851	0.516
x2 = 0.2248	0.595
x2 = 0.2423	0.64
x2 = 0.3049	0.75
x2 = 0.3581	0.834
x2 = 0.3605	0.843
x2 = 0.4935	0.963
x2 = 0.5772	0.975
x2 = 0.6522	0.947
x2 = 0.7056	0.896
x2 = 0.8946	0.477
x2 = 0.9545	0.23
x2 = 0.9792	0.112

CCCCCCCC#N [octanenitrile] + C[S+](C)[O-]
Settings	excess molar enthalpy [kJ/mol]
x2 = 0.02667	0.0814
x2 = 0.037	0.123
x2 = 0.1176	0.373
x2 = 0.18	0.559
x2 = 0.2399	0.708
x2 = 0.3293	0.889
x2 = 0.3877	0.976
x2 = 0.4654	1.05
x2 = 0.552	1.09
x2 = 0.6233	1.07
x2 = 0.7022	1.02
x2 = 0.8267	0.79
x2 = 0.8785	0.622
x2 = 0.9546	0.284
x2 = 0.9616	0.238
x2 = 0.992	0.0564

CCCCCC#N [hexanenitrile] + C[S+](C)[O-]
Settings	excess molar enthalpy [kJ/mol]
x2 = 0.07452	0.228
x2 = 0.09271	0.278
x2 = 0.1474	0.419
x2 = 0.1952	0.524
x2 = 0.2583	0.645
x2 = 0.3135	0.727
x2 = 0.3528	0.773
x2 = 0.4343	0.84
x2 = 0.4908	0.865
x2 = 0.5806	0.859
x2 = 0.7154	0.759
x2 = 0.842	0.541
x2 = 0.8892	0.412
x2 = 0.9559	0.19
x2 = 0.9855	0.0623

CCCCCCCCCCC#N [1-decylcyanide] + CSCS(C)=O
Settings	excess molar enthalpy [kJ/mol]
x2 = 0.02536	0.121
x2 = 0.04055	0.194
x2 = 0.04193	0.207
x2 = 0.07582	0.358
x2 = 0.07724	0.363
x2 = 0.1217	0.532
x2 = 0.1402	0.593
x2 = 0.1596	0.663
x2 = 0.1889	0.759
x2 = 0.2628	0.934
x2 = 0.2767	0.968
x2 = 0.3234	1.06
x2 = 0.4218	1.16
x2 = 0.5052	1.2
x2 = 0.77	0.991
x2 = 0.8316	0.844
x2 = 0.8694	0.713
x2 = 0.9043	0.579
x2 = 0.9095	0.55
x2 = 0.9464	0.361
x2 = 0.9933	0.0548

CCCCCCCCCCCCC#N [dodecanecarbonitrile] + C[S+](C)[O-]
Settings	excess molar enthalpy [kJ/mol]
x2 = 0.02177	0.0825
x2 = 0.06754	0.286
x2 = 0.09519	0.398
x2 = 0.09988	0.434
x2 = 0.1229	0.519
x2 = 0.2202	0.884
x2 = 0.2575	0.99
x2 = 0.2709	1.02
x2 = 0.28	1.06
x2 = 0.4232	1.29
x2 = 0.5464	1.35
x2 = 0.6358	1.33
x2 = 0.7394	1.24
x2 = 0.7753	1.18
x2 = 0.8034	1.13
x2 = 0.8609	0.947
x2 = 0.9001	0.759
x2 = 0.9286	0.602
x2 = 0.9571	0.401
x2 = 0.9821	0.192

CCCCCCCCCCC#N [1-decylcyanide] + C[S+](C)[O-]
Settings	excess molar enthalpy [kJ/mol]
x2 = 0.02797	0.12
x2 = 0.05445	0.229
x2 = 0.09234	0.392
x2 = 0.1207	0.5
x2 = 0.1811	0.731
x2 = 0.1853	0.743
x2 = 0.2855	1.04
x2 = 0.3924	1.24
x2 = 0.5139	1.35
x2 = 0.5302	1.35
x2 = 0.6423	1.35
x2 = 0.7161	1.29
x2 = 0.8292	1.06
x2 = 0.8917	0.817
x2 = 0.9298	0.608
x2 = 0.9772	0.229
x2 = 0.98	0.205
x2 = 0.9927	0.08

CCCCCCCCCCCCCC#N [tetradecanenitrile] + CSCS(C)=O
Settings	excess molar enthalpy [kJ/mol]
x2 = 0.03538	0.172
x2 = 0.05372	0.288
x2 = 0.08438	0.432
x2 = 0.1289	0.638
x2 = 0.1565	0.741
x2 = 0.1984	0.88
x2 = 0.3348	1.18
x2 = 0.505	1.27
x2 = 0.6332	1.22
x2 = 0.6721	1.19
x2 = 0.8155	0.956
x2 = 0.8867	0.719
x2 = 0.9123	0.605
x2 = 0.9566	0.365
x2 = 0.9858	0.147

CCCCCCCCC#N [nonanenitrile] + CSCS(C)=O
Settings	excess molar enthalpy [kJ/mol]
x2 = 0.01839	0.0833
x2 = 0.03954	0.172
x2 = 0.08357	0.335
x2 = 0.1186	0.454
x2 = 0.175	0.624
x2 = 0.2257	0.744
x2 = 0.2686	0.831
x2 = 0.3721	0.97
x2 = 0.3812	0.981
x2 = 0.4654	1.04
x2 = 0.5564	1.06
x2 = 0.6409	1.01
x2 = 0.779	0.815
x2 = 0.8417	0.65
x2 = 0.8806	0.528
x2 = 0.9058	0.442
x2 = 0.9564	0.222
x2 = 0.9784	0.111

CCCCCCCC#N [octanenitrile] + CSCS(C)=O
Settings	excess molar enthalpy [kJ/mol]
x2 = 0.02232	0.0869
x2 = 0.06732	0.268
x2 = 0.1083	0.405
x2 = 0.16	0.558
x2 = 0.2232	0.709
x2 = 0.3476	0.906
x2 = 0.5207	0.992
x2 = 0.6218	0.952
x2 = 0.7086	0.862
x2 = 0.7769	0.742
x2 = 0.869	0.509
x2 = 0.9129	0.367
x2 = 0.9266	0.324
x2 = 0.9548	0.208
x2 = 0.9879	0.0646

CCCCCCCCC#N [nonanenitrile] + C[S+](C)[O-]
Settings	excess molar enthalpy [kJ/mol]
x2 = 0.05896	0.214
x2 = 0.07322	0.261
x2 = 0.09784	0.346
x2 = 0.1285	0.449
x2 = 0.1721	0.59
x2 = 0.1898	0.638
x2 = 0.2365	0.765
x2 = 0.2408	0.784
x2 = 0.2698	0.852
x2 = 0.2836	0.883
x2 = 0.3841	1.05
x2 = 0.4577	1.14
x2 = 0.5425	1.19
x2 = 0.5442	1.19
x2 = 0.5569	1.19
x2 = 0.703	1.13
x2 = 0.7734	1.03
x2 = 0.8496	0.826
x2 = 0.8991	0.628
x2 = 0.939	0.43
x2 = 0.9712	0.222
x2 = 0.9917	0.071

CCCCCCCCCCCCCC#N [tetradecanenitrile] + C[S+](C)[O-]
Settings	excess molar enthalpy [kJ/mol]
x2 = 0.02407	0.128
x2 = 0.06045	0.281
x2 = 0.1219	0.559
x2 = 0.1415	0.642
x2 = 0.2193	0.917
x2 = 0.2527	1.02
x2 = 0.3063	1.17
x2 = 0.4181	1.35
x2 = 0.4877	1.42
x2 = 0.6186	1.44
x2 = 0.7619	1.3
x2 = 0.8716	0.96
x2 = 0.8962	0.84
x2 = 0.911	0.736
x2 = 0.9532	0.455
x2 = 0.9692	0.332
x2 = 0.9809	0.205

CCCCCCC#N [heptanenitrile] + CSCS(C)=O
Settings	excess molar enthalpy [kJ/mol]
x2 = 0.02045	0.0818
x2 = 0.05221	0.201
x2 = 0.08567	0.319
x2 = 0.09776	0.357
x2 = 0.1935	0.599
x2 = 0.2208	0.655
x2 = 0.2701	0.742
x2 = 0.3893	0.87
x2 = 0.4914	0.902
x2 = 0.579	0.885
x2 = 0.7478	0.714
x2 = 0.8609	0.466
x2 = 0.936	0.247
x2 = 0.9576	0.165
x2 = 0.9714	0.115

CCCCCCCCCC#N [1-decanenitrile] + CSCS(C)=O
Settings	excess molar enthalpy [kJ/mol]
x2 = 0.02311	0.0954
x2 = 0.02808	0.121
x2 = 0.05736	0.249
x2 = 0.07887	0.338
x2 = 0.1059	0.451
x2 = 0.1267	0.535
x2 = 0.1515	0.622
x2 = 0.186	0.736
x2 = 0.2278	0.851
x2 = 0.2893	0.971
x2 = 0.3382	1.05
x2 = 0.3657	1.08
x2 = 0.4935	1.14
x2 = 0.5572	1.13
x2 = 0.6575	1.05
x2 = 0.7014	0.999
x2 = 0.7482	0.919
x2 = 0.7873	0.839
x2 = 0.8609	0.659
x2 = 0.9468	0.305
x2 = 0.976	0.147
x2 = 0.988	0.0806

CCCCCCCCCCCC#N [n-dodecanenitrile] + CSCS(C)=O
Settings	excess molar enthalpy [kJ/mol]
x2 = 0.03008	0.157
x2 = 0.03781	0.199
x2 = 0.09203	0.448
x2 = 0.1008	0.476
x2 = 0.1789	0.746
x2 = 0.207	0.826
x2 = 0.2152	0.853
x2 = 0.3197	1.09
x2 = 0.3517	1.13
x2 = 0.5024	1.26
x2 = 0.5857	1.26
x2 = 0.7084	1.16
x2 = 0.8115	0.934
x2 = 0.8979	0.619
x2 = 0.9592	0.279
x2 = 0.9865	0.0995

CCCCCCCCCCCC#N [n-dodecanenitrile] + C[S+](C)[O-]
Settings	excess molar enthalpy [kJ/mol]
x2 = 0.02506	0.0968
x2 = 0.02612	0.109
x2 = 0.07491	0.32
x2 = 0.09988	0.434
x2 = 0.1665	0.702
x2 = 0.1791	0.772
x2 = 0.1948	0.812
x2 = 0.2522	1.02
x2 = 0.3366	1.22
x2 = 0.4308	1.37
x2 = 0.562	1.43
x2 = 0.7592	1.25
x2 = 0.8602	0.966
x2 = 0.8956	0.806
x2 = 0.9461	0.478
x2 = 0.9649	0.335
x2 = 0.9886	0.12

CCCCCCCCCC#N [1-decanenitrile] + C[S+](C)[O-]
Settings	excess molar enthalpy [kJ/mol]
x2 = 0.03778	0.142
x2 = 0.04533	0.175
x2 = 0.07244	0.27
x2 = 0.08356	0.312
x2 = 0.1458	0.553
x2 = 0.1516	0.572
x2 = 0.1578	0.592
x2 = 0.2138	0.767
x2 = 0.232	0.816
x2 = 0.3492	1.07
x2 = 0.4404	1.19
x2 = 0.52	1.25
x2 = 0.5471	1.26
x2 = 0.5564	1.27
x2 = 0.6253	1.26
x2 = 0.7275	1.18
x2 = 0.7979	1.05
x2 = 0.9212	0.583
x2 = 0.962	0.32
x2 = 0.9868	0.123

CCCCCC#N [hexanenitrile] + CSCS(C)=O
Settings	excess molar enthalpy [kJ/mol]
x2 = 0.01678	0.0542
x2 = 0.02979	0.104
x2 = 0.05841	0.197
x2 = 0.07605	0.247
x2 = 0.1435	0.433
x2 = 0.1944	0.545
x2 = 0.2184	0.591
x2 = 0.2608	0.66
x2 = 0.3826	0.787
x2 = 0.4382	0.807
x2 = 0.4785	0.811
x2 = 0.5751	0.783
x2 = 0.7307	0.628
x2 = 0.8373	0.449
x2 = 0.9177	0.255
x2 = 0.9392	0.196
x2 = 0.9784	0.0745

CCCCCCCCCCCCC#N [dodecanecarbonitrile] + CSCS(C)=O
Settings	excess molar enthalpy [kJ/mol]
x2 = 0.06513	0.323
x2 = 0.0823	0.433
x2 = 0.1316	0.629
x2 = 0.2014	0.873
x2 = 0.265	1.04
x2 = 0.3508	1.18
x2 = 0.367	1.21
x2 = 0.4233	1.26
x2 = 0.5443	1.28
x2 = 0.6344	1.23
x2 = 0.7341	1.11
x2 = 0.7878	0.992
x2 = 0.8039	0.948
x2 = 0.9082	0.578
x2 = 0.9683	0.246
x2 = 0.9847	0.123
